For six molecules, IC50 results are on record in PMC2959035, “Comparative biochemical analysis of recombinant reverse transcriptase enzymes of HIV-1 subtype B and subtype C” (Retrovirology, 2010).

Each structure is given as a SMILES string. Like-named read-outs stand apart in the source and are kept apart here.

Holding throughout (assay): RNA-dependent DNA polymerase assay, [3H]-dTTP incorporation
Common to all, as to type: biochemical

Experiment [1] addresses T1, C RT-2 (HIV-1 subtype C RT, isolate M01) (HIV-1 M:C_92BR025, UniProt O12158).
T1 construct: gene gag-pol; p66/p51 heterodimer cut from the Pol (Gag-Pol) polyprotein; His-tagged, E. coli; with p51 RT of Gag-Pol polyprotein
As to conditions: HIV-1 PBS RNA/dPR template/primer 30 nM, dNTPs 5 μM each, 6 mM MgCl2, 60 mM KCl, pH 7.8, 37°C, 30 min, read-out: IC50 (μM)^a / C RT-2 ^e. The text has this:
RNA-dependent DNA polymerase assay, [3H]-dTTP incorporation on C RT-2 (HIV-1 subtype C RT, isolate M01)

Experiment [2] concerns the target T2, B RT-2 (HIV-1 subtype B RT, HXB2) (HIV-1 M:B_HXB2R, UniProt P04585).
T2 construct: gene gag-pol; p66/p51 heterodimer cut from the Pol (Gag-Pol) polyprotein; plasmid pRT6H-PROT with co-expressed HIV-1 protease; 6-His tag; E. coli M15; Ni-NTA, DEAE- and SP-Sepharose; with p51 RT of Gag-Pol polyprotein
The text has this: RNA-dependent DNA polymerase assay, [3H]-dTTP incorporation on B RT-2 (HIV-1 subtype B RT, HXB2)

The target of experiment [3] is T3, B RT-1 (HIV-1 subtype B RT, NL4-3) (Human immunodeficiency virus type 1 (NEW YORK-5 ISOLATE), UniProt P12497).
T3 construct: gene gag-pol; p66/p51 heterodimer cut from the Pol (Gag-Pol) polyprotein; plasmid pbRT6H-PROT with co-expressed HIV-1 protease; 6-His tag; E. coli M15; Ni-NTA, DEAE- and SP-Sepharose; with p51 RT of Gag-Pol polyprotein
An excerpt:
RNA-dependent DNA polymerase assay, [3H]-dTTP incorporation on B RT-1 (HIV-1 subtype B RT, NL4-3)

The mark [4] stands for this setting: NNRTI, non-competitive allosteric.
The mark [5] stands for this setting: read-out: IC50 (μM)^a / B RT-2^c.
Setting [6] is: read-out: IC50 (μM)^a / B RT-1^b.
The mark [7] stands for this setting: nucleotide analogue, competitive at active site.

Take `Cc1ccnc2c1NC(=O)c1cccnc1N2C1CC1` [NVP]: the IC50 in experiment [1] (setting [4]) came to 4.3 ± 0.3 µM.
With `C[C@H](Cn1cnc2c(N)ncnc21)OCP(=O)(O)OP(=O)(O)OP(=O)(O)O` [TFV-DP], the IC50 is 2.1 ± 0.3 µM in experiment [2] (setting [5]), 2.5 ± 0.3 µM in experiment [3] (setting [6]) and 2.9 ± 0.4 µM in experiment [1] (setting [7]).
`Cc1cn([C@H]2C[C@H](N=[N+]=[N-])[C@@H](CO[P@](=O)(O)O[P@](=O)(O)OP(=O)(O)O)O2)c(=O)[nH]c1=O` [ZDV-TP]: the IC50 was 2.9 ± 0.4 µM in experiment [2] and 3.8 ± 0.5 µM in experiment [1] (150 μM sodium pyrophosphate included, nucleotide analogue, competitive at active site).
For `Cc1cc(C#N)cc(C)c1Oc1nc(Nc2ccc(C#N)cc2)nc(N)c1Br` [ETR], the IC50 in experiment [2] (setting [5]) was 0.16 ± 0.02 µM; in experiment [3] (setting [6]), 0.17 ± 0.03 µM; in experiment [1] (setting [4]) it was 0.19 ± 0.03 µM.
Take `Nc1ccn([C@@H]2CS[C@H](COP(=O)(O)OP(=O)(O)OP(=O)(O)O)O2)c(=O)n1` [3TC-TP]: the results for the IC50 in experiment [3] and in experiment [1] (setting [7]) were 2.7 ± 0.3 µM and 4.1 ± 0.4 µM, respectively.
As to `O=C1Nc2ccc(Cl)cc2[C@@](C#CC2CC2)(C(F)(F)F)O1` [EFV], in experiment [1] (setting [4]), the IC50 was found to be 0.18 ± 0.02 µM.
